Columns and labels:
[1] = target: Mu-type opioid receptor (Cavia porcellus, UniProt P97266); experiment: Binding affinity was determined against Opioid receptor mu 1 obtained from guinea pig brain membranes using [3H]DAMGO as radioligand
[2] = target: Kappa-type opioid receptor (Cavia porcellus, UniProt P41144); experiment: Binding affinity was determined against Opioid receptor kappa 1 obtained from guinea pig brain membranes using [3H]U-69593 as radioligand
[3] = Binding affinity was determined against Opioid receptor delta 1 obtained from guinea pig brain membranes using [3H]naltrindole as radioligand

Chain of Mu-type opioid receptor (P97266 whole entry): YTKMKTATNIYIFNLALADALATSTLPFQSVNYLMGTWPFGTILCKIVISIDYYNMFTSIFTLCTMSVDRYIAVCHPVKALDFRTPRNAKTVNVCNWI
Chain of Kappa-type opioid receptor (P41144 whole entry): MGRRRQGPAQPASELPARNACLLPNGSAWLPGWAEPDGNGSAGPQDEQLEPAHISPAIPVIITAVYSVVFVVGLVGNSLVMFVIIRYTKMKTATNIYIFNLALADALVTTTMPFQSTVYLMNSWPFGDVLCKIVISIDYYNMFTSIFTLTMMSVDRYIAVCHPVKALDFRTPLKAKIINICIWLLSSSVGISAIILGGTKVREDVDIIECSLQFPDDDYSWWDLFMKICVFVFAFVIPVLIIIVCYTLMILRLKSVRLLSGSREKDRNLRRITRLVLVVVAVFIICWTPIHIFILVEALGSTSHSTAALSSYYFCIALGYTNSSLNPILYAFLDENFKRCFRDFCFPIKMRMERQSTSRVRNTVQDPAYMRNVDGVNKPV

SMILES | Ki [1] [nM] | Ki [2] [nM] | Ki [3] [nM]
C[C@@H]1[C@@H]2Cc3ccc(O)cc3[C@@]1(C)CN2CC1CC1 | 360 | 76 | 
CNc1ccc2c(c1)[C@@]1(C)CCN(CC3CC3)C(C2)[C@@H]1C (mixture of isomers) |  | 8.5 | 
C[C@H]1C2Cc3ccc(N(C)Cc4ccccc4)cc3[C@@]1(C)CCN2CC1CC1 (mixture of isomers) | 56 | 44 | 
C[C@H]1C2Cc3ccc(N(C)C)cc3[C@@]1(C)CCN2CC1CC1 (mixture of isomers) | 82 | 33 | 
C[C@H]1C2Cc3ccc(NCc4ccccc4)cc3[C@@]1(C)CCN2CC1CC1 (mixture of isomers) | 1.5 | 4.7 | 
C[C@H]1C2Cc3ccc(N)cc3[C@@]1(C)CCN2CC1CC1 (mixture of isomers) | 9.5 | 4.1 | 
C[C@H]1C2Cc3ccc(N4CCCCC4)cc3[C@@]1(C)CCN2CC1CC1 (mixture of isomers) | 950 | 300 | 
C[C@H]1C2Cc3ccc(N4CCOCC4)cc3[C@@]1(C)CCN2CC1CC1 (mixture of isomers) | 650 | 560 | 
C[C@H]1C2Cc3ccc(N4CCN(C)CC4)cc3[C@@]1(C)CCN2CC1CC1 (mixture of isomers) | 21 | 8.8 | 
CC(C)Nc1ccc2c(c1)[C@@]1(C)CCN(CC3CC3)C(C2)[C@@H]1C (mixture of isomers) | 240 | 78 | 
CCNc1ccc2c(c1)[C@@]1(C)CCN(CC3CC3)C(C2)[C@@H]1C (mixture of isomers) | 5.1 | 3.3 | 
C[C@H]1C2Cc3ccc(N4CCCC4)cc3[C@@]1(C)CCN2CC1CC1 (mixture of isomers) |  | 410 | 
C[C@H]1C2Cc3ccc(NCCc4ccccc4)cc3[C@@]1(C)CCN2CC1CC1 (mixture of isomers) | 9 | 11 | 
C[C@H]1[C@H]2Cc3ccc(Nc4ccccc4)cc3[C@@]1(C)CCN2CC1CC1 (racemic) | 1.3 | 0.83 | 
C[C@H]1[C@H]2Cc3ccc(O)cc3[C@@]1(C)CCN2CC1CC1 (racemic) |  | 0.18 | 
C[C@H]1C2Cc3ccc(N)cc3[C@@]1(C)CCN2CC1CC1 (stereo in doubt; (+)-6) | 780 | 506 | 
C[C@H]1[C@H]2Cc3ccc(Nc4ccccc4)cc3[C@@]1(C)CCN2CC1CC1 (stereo in doubt; (+)-12) | 46 | 27 | 
C[C@H]1C2Cc3ccc(N)cc3[C@@]1(C)CCN2CC1CC1 (stereo in doubt; (-)-5) | 1.8 | 1.2 | 
C[C@H]1[C@H]2Cc3ccc(Nc4ccccc4)cc3[C@@]1(C)CCN2CC1CC1 (stereo in doubt; (-)-11) | 1.1 | 0.54 | 
C[C@H]1C2Cc3ccc(NCc4ccccc4)cc3[C@@]1(C)CCN2CC1CC1 (stereo in doubt; (-)-14) | 0.67 | 2.1 | 
C[C@H]1[C@H]2Cc3ccc(O)cc3[C@]1(C)CCN2CC1CC1 [CYCLAZOCINE] |  |  | 0.58
